Data set [1] is described as follows: Saccharomyces cerevisiae (budding yeast) dose-response experiments. The data set is classed as cell-based. The settings on record: Saccharomyces cerevisiae, yeast strain RY0568 culture; non-target system; growth over 18 hours; read-out: S. cerevisiae LC50. As to the method: A saturated culture of the yeast strain RY0568 was diluted to an OD600 of 0.015 with fresh YPD media (see ref. 62). 100 μL of this dilute yeast suspension was added to each well of a 96-well plate. The yeast were grown for 4 hours at 30° C. with shaking at 140 rpm. Using a multichannel pipette, 1 μL of chemical solution was added to each well to achieve the desired final concentrations. The final DMSO concentration was 1% (v/v). The microwell plate was then loaded into a TECAN plate reader set at 30° C. The OD600 of each well was measured over an 18-hour period, and the plate was shaken intermittently throughout the run. The areas under the resultant growth curves were calculated using R scripts adapted from those found in the MESS package. The area under the curve at each concentration of a dose-response assay was divided by the area under the curve for the corresponding DMSO control, resulting in a “relative fitness” value for each concentration tested. Three biological replicates were performed for each dose-response experiment, and the relative fitness values were averaged across the three replicates.

A further data set concerns C. elegans. As to the kind of experiment: C. elegans dose-response experiments (wild type; embryo to adult and dauer stages). Type of data set: in vivo. Conditions: for LC50: Caenorhabditis elegans. As to the method:
Forty microliters of an HB101 bacterial suspension in liquid NGM (see above) was added to each well of a 96-well flat-bottom culture plate, after which approximately 25 synchronized L1 worms, in 10 μl of M9 buffer (see ref. 59 for the recipe), were added to each well. The synchronized L1 worms were obtained from an embryo preparation performed the previous day (see ref. 59 for the protocol). For the L1 assays, 0.5 μl of chemical solution (or DMSO alone) was immediately added to the wells using a multichannel pipette, the final DMSO concentration is 1% (v/v). The worms were incubated for 3 days at 20° C. and the number of viable animals was counted. […] Although the counts were performed after 3 days of incubation in the chemical, it was noted that the L1s were dead within 24 hours of the addition of the chemicals. For the L2/L3 assays, the worms were incubated in the absence of chemical for 1 day at 20° C. until they reached the L2/L3 stage, at which point chemical was added as described above. The worms were then allowed to incubate for 2 days at 20° C. and the number of viable animals was counted as described for the L1 assay. For the L4 assays, the worms were incubated for 2 days at 20° C. before the addition of chemicals. The L4-stage worms were then incubated in chemical for an additional day before quantifying the number of viable animals. The adult assays were performed the same way as the L4 assays, however HT115 E. coli carrying the empty dsRNA expressing vector L4440 was used in place of HB101 and the worms were cultured at 25° C. as opposed to 20° C. for the entirety of the experiment. The HT115 suspension was made by concentrating a bacterial culture, with an OD600 of ˜ 0.8, five-fold with liquid NGM containing 1 mM IPTG and 100 μg/ml carbenicillin. The HT115 cells were induced with 1 mM IPTG for one hour before concentrating with NGM.
For the dose-response experiments with embryos, eggs obtained from an embryo preparation were immediately aliquoted into 96-well plate wells. Approximately 25 embryos in 50 μl of M9 buffer were added to each well, and 0.5 μl volumes of the chemicals were added via multichannel, in the same way as for the L1 dose-response assays described above. The plates were incubated at 20° C. for 1 day, at which point the number of hatched eggs was counted.
For the dauer dose-response assays, the CB1370 strain carrying the temperature sensitive daf-2(e1370) allele was used. When grown at the non-permissive temperature of 25° C. these mutants will enter dauer constitutively. The assay was performed similarly to the […] described above, however the L1 worms were allowed to grow for 2 days at 25° C. until they became dauer larvae. At this point chemical was added and the dauers were incubated for 2 days at 25° C. before quantitation of viability. After 2 days, all of the dauer larvae, including the DMSO controls, were relatively motionless and appeared as rigid rods. To activate the worms, 1 μl of 1 N sodium hydroxide was added to each well and the plates were agitated vigorously before counting. This was done one well at a time.
At least three biological replicates were performed for each dose-response assay. For each biological replicate, two technical replicates were performed and the numbers of viable animals for each technical replicate were combined (i.e. ˜50 worms assayed per concentration). The number of viable worms at each concentration was divided by the corresponding DMSO control value to give the “relative viability” for each concentration. The “relative viability” values were then averaged across the biological replicates. LC50 values were calculated using Graphpad Prism. The concentration values were log-transformed and a four-parameter logistic curve was fitted to the dose-response data by non-linear regression, from which the LC50 values were extracted.

A further data set concerns M. chitwoodi. As to the kind of experiment: Root-knot nematode M. chitwoodi mobility (Table 3). The data set is classed as in vivo, Meloidogyne chitwoodi. Conditions: 45 μM, 2 days of chronic exposure. As to the method:
M. incognita (Kofoid & White) Chitwood Race 1 (originally isolated in Maryland) was used for all experiments, and was maintained on pepper (Capsicum annuum L.) cv. PA-136 in a greenhouse as previously described^64. Infective J2 juveniles were collected as described in ref.65. The microwell dose-response experiments were carried out similarly to previously described protocols^64, 66. In brief, 100 J2s, in 10 μL of deionized water, were added to the wells of 96-well polystyrene plates, after which 190 μL of deionized water containing dissolved chemical, or DMSO alone, was added to each well. The chemicals were tested at 45 μM, and the final concentration of DMSO in each well was 0.5% (v/v). The wells were covered with a plastic adhesive strip, and the lids of the plates were sealed with parafilm. The plates were incubated at 25° C. The mobile fraction of worms was quantified by counting the number of mobile and immobile worms after 2 days of incubation, and then dividing the number of mobile worms by the total number of worms in the well. Three technical replicates were performed for each treatment, and an average value for the mobile fraction of worms was calculated across the three replicates. The percent effectiveness at inhibiting nematode movement was calculated by dividing the average value for the chemical treatment by the average value for the DMSO control, then subtracting this value from 1, and then multiplying by 100.
M. chitwoodi race 1 (the strain commonly found in the pacific northwest of the United States) was used for all experiments, and was maintained on tomato plants (Solanum lycopersicum ‘Rutgers’) as previously described^73. The M. chitwoodi in vitro assays were performed identically to the M. incognita in vitro assays (see above).
The ability of exemplary compounds of the application to kill C. elegans at 100 μM (except for compound If which was tested at 50 μM) and to affect the mobility of M. chitwoodi at 45 μM was tested as described above for M. incognita infective juveniles. Percent mobility was measured after 2 days of chronic exposure to test compounds (Table 3).

The mark [2] stands for this setting: 72 h, L1 worms, 3 days at 20° C., read-out: C. elegans LC50.
The mark [3] stands for this setting: wild-type, resistance none, read-out: LC50 in strain N2.

Read-outs that look alike come from different tables or passages of the source.

As to `Cc1csc2nc(-c3ccccc3)cn12` [Compound Ie], in data set [1], the CC50 at 18 h is > 100 µM. For the same molecule, the LC50 in the data set on C. elegans (setting [2]) is > 100 µM. In the data set with M. chitwoodi, this molecule came in with an RKN mobility of 50.8%.

Take `Clc1ccc(-c2cn3ccsc3n2)cc1` [Ia]: the CC50 at 18 h in data set [1] is > 100 µM. For the same molecule, the LC50 in the data set on C. elegans (setting [2]) and in the data set on C. elegans (setting [3]) was 6.9 µM each time. Also, in the data set with C. elegans (FIG. 1B), the “killing of each developmental stage of C. elegans from embryo to adult” value is given as “micromolar potency”. The “killing of the non-reproductive dauer stage of C. elegans” value with C. elegans (daf-2(e1370) dauers, FIG. 1B) is “can also kill the non-reproductive dauer stage”. In the data set on M. chitwoodi, this molecule showed an RKN mobility of 0%.

In the case of `Fc1ccc(-c2cn3ccsc3n2)cc1` [Ib], the CC50 at 18 h in data set [1] is > 100 µM. The LC50 with C. elegans (setting [2]) and in the data set on C. elegans (setting [3]) was 29.7 µM in each case. Moreover, in the data set on M. chitwoodi, the RKN mobility was found to be 43.2%.

The values above are taken from patent US20220264883A1, “IMIDAZOTHIAZOLE COMPOUNDS AND METHODS FOR TREATING PLANT NEMATODE INFECTIONS” (The Governing Council of the University of Toronto, priority 2019, published 2022).
